In PubChem BioAssay AID504777 (National Center for Advancing Translational Sciences (NCATS), 2011):

System: mouse liver microsomes without NADPH, LC-MS/MS
Test: Enhancers of SMN2 Splice Variant Expression: Metabolic Stability in absence of NADPH Profiling
Details: at 1 µM; active compounds read high
Text: Spinal muscular atrophy (SMA) is caused by insufficient levels of the survival motor neuron protein SMN. The SMN locus on chromosome 5q13 contains two inverted copies of SMN called SMN1 and SMN2 which are 99% identical at the amino acid level. SMN1 is a fully functional protein and SMN2 skips exon 7 90% of the time. Skipping of exon 7 produces non-functional protein product. 10% of the SMN2 protein includes exon 7 and is fully functional. In the SMA disease state, mutations in the SMN1 locus are the cause of the disease state. Because only 10% of SMN2 is of the fully functional form, it is not sufficient to overcome the deficiency produced by the loss of the SMN1 product. A therapy that either increase the amount of SMN2 product made or to increase the inclusion of exon 7 has been proposed for the treatment of SMA. Mouse liver microsomes are generated from lysed mouse liver. Liver microsomes contain many drug metabolizing enzymes, including Cytochome P-450s and flavin-containing monooxygenases. Because drug metabolism is major way of drug clearance, this is an important result. NIH Chemical Genomics Center [NCGC] NIH Molecular Libraries Probe Production centers Network [MLPCN] MLPCN Grant: R03 MH084179-01 Assay Submitter (PI): Elliot Androphy
1uM of compound in incubated in mouse liver microsome; the reference compound is ketanserin. […] Samples are analyzed with LC-MS/MS.

O=C(O)C1CCN(c2nc(-c3ccc(Br)cc3)cs2)CC1
percent remaining: 95%
